Assays:
[1] = in vitro dissolution test, microcentrifuge method, PBS (Drug 1 compositions); type: physicochemical; conditions: for AUC90: area under aqueous concentration versus time curve after 90 minutes; for AUC90 / C1200 / Cmax, 90: PBS, dosage 2000 μg/mL; for C1200: concentration at 1200 minutes; for Cmax, 90: maximum concentration of Drug 1 in solution during first 90 minutes; for AUC / Drug Concentration: PBS pH 6.5, 37° C.
Experimental: In vitro dissolution tests were performed to evaluate the performance of the amorphous dispersions of Examples 1-9 relative to the performance of Controls 1 and 2. The dissolution performance of the SDD of Example 1 was evaluated in an in vitro dissolution test using a microcentrifuge method. In this test, 14.4 mg of the SDD of Example 1 was added to a microcentrifuge tube. The tube was placed in a 37° C. sonicating bath, and 1.8 mL phosphate buffered saline (PBS) at pH 6.5 and 290 mOsm/kg was added. The samples were quickly mixed using a vortex mixer for about 60 seconds. The samples were centrifuged at 13,000 G at 37° C. for 1 minute. The resulting supernatant solution was then sampled and diluted 1:6 (by volume) with methanol and then analyzed by high-performance liquid chromatography (HPLC). The contents of the tubes were mixed on the vortex mixer and allowed to stand undisturbed at 37° C. until the next sample was taken. Samples were collected at 4, 10, 20, 40, 90, and 1200 minutes.
The performance of Example Nos. 2-8 was likewise evaluated in in vitro dissolution tests using the same microcentrifuge method described above. The dosage for each of these tests was 2000 μg/ml.
The performance of the amorphous dispersions of Example 9 were tested using the same microcentrifuge method, except that 2.5 grams of the coated beads were added to 50 mL of PBS solution (resulting in a dosage of 2000 μg/mL).
For Controls 1 and 2, in vitro dissolution tests were also performed using the same microcentrifuge method except that 3.6 mg of either crystalline or amorphous Drug 1 was used.
These compositions were evaluated in in vitro dissolution tests using the procedures outlined in Example 10. The quantities of drug and polymer noted above were each added to a microcentrifuge tube, to which was added 1.8 ml of PBS solution. The tube was vortexed immediately after adding the PBS solution.
A coating solution comprising 7.5 wt % HPMCAS-MF dissolved in 92.5 wt % solvent (5 wt % water in acetone) was prepared and spray-coated onto Nu-Core Beads (45/60 mesh), producing a thin coating of the polymer on the surface of the beads resulting in beads containing 12.2 wt % HPMCAS-MF. Samples of these beads (2.4 gm) were then mixed with 100 mg of amorphous Drug 1 (resulting in a drug:polymer ratio of 1:3 or 25 wt % Drug 1) and evaluated in an in vitro dissolution test using the procedures outlined in Example 10.
A composition was formed by blending 50 wt % of the SDD of Example 2 (containing 50 wt % Drug 1 and 50 wt % HPMCAS-MF) with 50 wt % HPMCAS-MF. This composition was evaluated in a dissolution test as described in Example 10.

[2] = in vitro dissolution test, microcentrifuge method, model fasted duodenal solution (Drug 2 compositions); type: physicochemical; parameters: AUC: concentration or dose not given beside the values; conditions: for AUC90: aqueous area under the curve after 90 minutes; for AUC90 / C1200 / Cmax, 90 / AUC: MFDS; for AUC90 / C1200 / Cmax, 90: dosage 1000 μg/mL; for C1200: concentration at 1200 minutes; for Cmax, 90: maximum concentration of Drug 2 in solution during first 90 minutes; for Drug Concentration: MFDS pH 6.5, 37° C.
Experimental: In vitro dissolution tests were performed to evaluate the performance of the amorphous dispersions of Examples 12-17 relative to the performance of Controls 4 and 5. The SDD of Example 12 was evaluated in an in vitro dissolution test using a microcentrifuge method. In this test, 3600 μg of the SDD of Example 12 was added to a microcentrifuge tube. The tube was placed in a 37° C. sonicating bath, and 1.8 mL of model fasted duodenal solution (MFDS), comprising phosphate buffered saline with 14.7 mM sodium taurocholic acid and 2.8 mM of 1-palmitoyl-2-oleyl-sn-glycero-3-phosphocholine, pH 6.5, 290 mOsm/kg, was added. […] The samples were quickly mixed using a vortex mixer for about 60 seconds. The samples were centrifuged at 13,000 G at 37° C. for 1 minute. The resulting supernatant solution was then sampled and diluted 1:6 (by volume) with methanol and then analyzed by high-performance liquid chromatography (HPLC). The contents of the tubes were mixed on the vortex mixer and allowed to stand undisturbed at 37° C. until the next sample was taken. Samples were collected at 4, 10, 20, 40, 90, and 1200 minutes.
For Controls 4 and 5, in vitro dissolution tests were performed using the procedures described above except that 1.8 mg of crystalline and amorphous Drug 2 was used, respectively.

Row | Structure (SMILES) | AUC90 [1] | C1200 [1] | Cmax, 90 [1] | AUC ([1]; time 0 min) | Drug Concentration ([1]; time 0 min) | AUC ([1]; time 4 min) | Drug Concentration ([1]; time 4 min) | AUC ([1]; time 10 min) | Drug Concentration ([1]; time 10 min) | AUC ([1]; time 20 min) | Drug Concentration ([1]; time 20 min) | AUC ([1]; time 40 min) | Drug Concentration ([1]; time 40 min) | AUC ([1]; time 90 min) | Drug Concentration ([1]; time 90 min) | AUC ([1]; time 1200 min) | Drug Concentration ([1]; time 1200 min) | AUC90 [2] | C1200 [2] | Cmax, 90 [2] | other results
1 | O=C(N[C@@H](Cc1ccccc1)[C@@H](O)C(=O)N1C[C@@H](O)[C@@H](O)C1)c1cc2cc(Cl)ccc2[nH]1 [Control 1] | 12,800 min* μg/mL | 125 µg/mL | 149 µg/mL | 0 µg·min/mL | 0 µg/mL | 260 µg·min/mL | 130 µg/mL | 1,100 min* μg/mL | 149 µg/mL | 2,500 min* μg/mL | 139 µg/mL | 5,400 min* μg/mL | 149 µg/mL | 12,800 min* μg/mL | 147 µg/mL | 163,800 min* μg/mL | 125 µg/mL | – | – | – | –
2 | O=C(N[C@@H](Cc1ccccc1)[C@@H](O)C(=O)N1C[C@@H](O)[C@@H](O)C1)c1cc2cc(Cl)ccc2[nH]1 [Control 2] | 20,600 min* μg/mL | 203 µg/mL | 586 µg/mL | 0 µg·min/mL | 0 µg/mL | 1,200 min* μg/mL | 586 µg/mL | 4,400 min* μg/mL | 473 µg/mL | 7,800 min* μg/mL | 220 µg/mL | 11,700 min* μg/mL | 182 µg/mL | 20,600 min* μg/mL | 167 µg/mL | 225,900 min* μg/mL | 203 µg/mL | – | – | – | AUC ([1]; time 180 min): 35,200 min* μg/mL; Drug Concentration ([1]; time 180 min): 158 µg/mL
3 | O=C(N[C@@H](Cc1ccccc1)C(=O)N1CC(O)C1)c1cc2cc(Cl)ccc2[nH]1 [Control 4] | – | – | – | – | – | – | – | – | – | – | – | – | – | – | – | – | – | 5,900 min* μg/mL | 102 µg/mL | 82 µg/mL | AUC ([2]; time 0 min): 0 µg·min/mL; Drug Concentration ([2]; time 0 min): 0 µg/mL; AUC ([2]; time 4 min): 90 µg·min/mL; Drug Concentration ([2]; time 4 min): 45 µg/mL; AUC ([2]; time 10 min): 357 µg·min/mL; Drug Concentration ([2]; time 10 min): 44 µg/mL; AUC ([2]; time 20 min): 842 µg·min/mL; Drug Concentration ([2]; time 20 min): 53 µg/mL; AUC ([2]; time 40 min): 2,100 min* μg/mL; Drug Concentration ([2]; time 40 min): 72 µg/mL; AUC ([2]; time 90 min): 5,900 min* μg/mL; Drug Concentration ([2]; time 90 min): 82 µg/mL; AUC ([2]; time 1200 min): 108,100 min* μg/mL; Drug Concentration ([2]; time 1200 min): 102 µg/mL
4 | O=C(N[C@@H](Cc1ccccc1)C(=O)N1CC(O)C1)c1cc2cc(Cl)ccc2[nH]1 [Control 5] | – | – | – | – | – | – | – | – | – | – | – | – | – | – | – | – | – | 20,800 min* μg/mL | 370 µg/mL | 268 µg/mL | AUC ([2]; time 0 min): 0 µg·min/mL; Drug Concentration ([2]; time 0 min): 0 µg/mL; AUC ([2]; time 4 min): 302 µg·min/mL; Drug Concentration ([2]; time 4 min): 151 µg/mL; AUC ([2]; time 10 min): 1,400 min* μg/mL; Drug Concentration ([2]; time 10 min): 203 µg/mL; AUC ([2]; time 20 min): 3,500 min* μg/mL; Drug Concentration ([2]; time 20 min): 225 µg/mL; AUC ([2]; time 40 min): 8,100 min* μg/mL; Drug Concentration ([2]; time 40 min): 238 µg/mL; AUC ([2]; time 90 min): 20,800 min* μg/mL; Drug Concentration ([2]; time 90 min): 268 µg/mL; AUC ([2]; time 1200 min): 374,900 min* μg/mL; Drug Concentration ([2]; time 1200 min): 370 µg/mL

— patent publication US20010053778A1, “Pharmaceutical compositions of glycogen phosphorylase inhibitors” (priority 2000, published 2001)
